Biological target: T1, mouse AhR (mAhr) (Mus musculus, UniProt P30561)
T1 construct: cytosolic protein from Hepa1c1c7 cells
T1 sequence (P30561 10-848): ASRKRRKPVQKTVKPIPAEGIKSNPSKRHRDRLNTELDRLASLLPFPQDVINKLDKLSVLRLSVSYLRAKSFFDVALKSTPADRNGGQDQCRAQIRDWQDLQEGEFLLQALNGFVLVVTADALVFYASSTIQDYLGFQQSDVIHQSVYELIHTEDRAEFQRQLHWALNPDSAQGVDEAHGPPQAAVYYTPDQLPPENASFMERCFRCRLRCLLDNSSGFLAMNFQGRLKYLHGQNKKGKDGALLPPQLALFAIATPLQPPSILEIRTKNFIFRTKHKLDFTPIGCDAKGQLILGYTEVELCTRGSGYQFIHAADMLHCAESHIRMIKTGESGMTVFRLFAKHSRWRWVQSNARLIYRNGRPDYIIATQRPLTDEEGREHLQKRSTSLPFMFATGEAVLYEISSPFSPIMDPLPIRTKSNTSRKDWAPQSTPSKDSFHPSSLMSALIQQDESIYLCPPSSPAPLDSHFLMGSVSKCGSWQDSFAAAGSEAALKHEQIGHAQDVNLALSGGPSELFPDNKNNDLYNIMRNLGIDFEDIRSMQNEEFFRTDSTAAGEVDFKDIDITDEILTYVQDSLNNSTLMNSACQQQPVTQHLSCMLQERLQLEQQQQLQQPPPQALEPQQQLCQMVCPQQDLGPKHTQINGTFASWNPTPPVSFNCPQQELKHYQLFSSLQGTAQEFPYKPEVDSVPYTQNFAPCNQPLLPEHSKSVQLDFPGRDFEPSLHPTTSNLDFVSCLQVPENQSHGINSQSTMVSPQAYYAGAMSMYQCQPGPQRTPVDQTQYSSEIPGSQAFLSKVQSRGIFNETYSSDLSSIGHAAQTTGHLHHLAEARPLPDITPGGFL
Test: [3H]-TCDD competitive radioligand binding; partial displacement (about […]) at […]

IC50: > 609 µM
SMILES: CC/C=C\CC1=C(C)CCC1=O [jasmone, 3-methyl-2-[(2Z)-pent-2-en-1-yl]cyclopent-2-en-1-one]
